Results reported in patent publication US12208088B2 (Genentech, Inc., priority 2018, dated 2025).

Target: HPK1 (Homo sapiens (Human), UniProt Q92918)
Assay: HPK1 Lantha binding assay ("Lanth")
Conditions: binding assays; Morrison Ki fit
Summary of the method: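 TR-FRET binding competition using 2 nM HPK1, 2 nM Eu-anti-GST antibody and 15 nM Tracer222 at 23 °C. Compound was incubated 1 h with enzyme and antibody, then 1 h after tracer addition, with an 11-point 5-fold dilution series. Ki obtained from a Morrison fit that corrects for tracer concentration and Kd.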

Chain of HPK1 (Q92918 1-346 limits assumed): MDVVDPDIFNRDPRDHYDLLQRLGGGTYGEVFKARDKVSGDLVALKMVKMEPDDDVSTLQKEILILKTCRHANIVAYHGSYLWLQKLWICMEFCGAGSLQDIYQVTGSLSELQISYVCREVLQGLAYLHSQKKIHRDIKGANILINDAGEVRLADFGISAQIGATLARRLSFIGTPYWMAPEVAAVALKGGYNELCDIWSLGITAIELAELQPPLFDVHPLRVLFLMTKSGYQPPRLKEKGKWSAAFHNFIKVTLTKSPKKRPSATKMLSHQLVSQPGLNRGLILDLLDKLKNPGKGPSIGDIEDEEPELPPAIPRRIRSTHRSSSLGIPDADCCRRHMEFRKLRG

| Compound | Ki [nM] |
| --- | --- |
| CN1CCN(c2cccc3c(-c4cnc5c(c4Cl)[C@]4(CC[C@H](C(N)=O)C4)CN5)c[nH]c23)C(=O)C1 (relative stereo) [Compound 304a, (1R,3S)-4′-Chloro-5′-(7-(4-methyl-2-oxopiperazin-1-yl)-1H-indol-3-yl)-1′,2′-dihydrospiro[cyclopentane-1,3′-pyrrolo[2,3-b]pyridine]-3-carboxamide] | 43.9 |
| NC(=O)[C@H]1CC[C@@]2(CNc3ncc(-c4c[nH]c5c(N6CCNCC6=O)cccc45)c(Cl)c32)C1 (relative stereo) [Compound 305a, (1RS,3SR)-4′-Chloro-5′-(7-(2-oxopiperazin-1-yl)-1H-indol-3-yl)-1′,2′-dihydrospiro[cyclopentane-1,3′-pyrrolo[2,3-b]pyrdine]-3-carboxamide] | 38.6 |
| C[C@@H]1C[C@@]12CNc1ncc(-c3c[nH]c4c(N5CCNCC5=O)cccc34)cc12 (relative stereo) [Compound 306a, 1-(3-((1R,2R)-2-methyl-1′,2′-dihydrospiro[cyclopropane-1,3′-pyrrolo[2,3-b]pyridin]-5′-yl)-1H-indol-7-yl)piperazin-2-one] | 43.2 |
| C[C@]1(C#N)CC[C@@]2(CNc3ncc(-c4c[nH]c5ccc(C#N)cc45)c(Cl)c32)C1 (relative stereo) [Compound 330a, (1R,3S)-4′-Chloro-5′-(5-cyano-1H-indol-3-yl)-3-methyl-1′,2′-dihydrospiro[cyclopentane-1,3′-pyrrolo[2,3-b]pyridine]-3-carbonitrile] | 73.9 |
| C[C@]1(C(N)=O)CC[C@@]2(CNc3ncc(-c4c[nH]c5ccc(C#N)cc45)c(Cl)c32)C1 (relative stereo) [Compound 337a, (1R,3S)-4′-Chloro-5′-(5-cyano-1H-indol-3-yl)-3-methyl-1′,2′-dihydrospiro[cyclopentane-1,3′-pyrrolo[2,3-b]pyridine]-3-carboxamide] | 28.4 |
| Nc1cc(-c2cnc3c(c2Cl)[C@]2(CC[C@H](O)C2)CN3)cc(-c2ncccc2CO)c1 (single isomer, unassigned) [Compound 61a] | 39.1 |
| CN(C)C(=O)c1c(N)ccc(-c2cnc3c(c2Cl)[C@]2(CC[C@@H](n4ccnn4)C2)CN3)c1F (single isomer, unassigned) [Compound 90c] | 80.4 |
| CN(C)C(=O)c1c(N)ccc(-c2cnc3c(c2Cl)[C@]2(CC[C@H](C(N)=O)C2)CN3)c1F (single isomer, unassigned) [Compound 100a] | 63.5 |
| CN(C)C(=O)c1c(N)ccc(-c2cnc3c(c2Cl)[C@]2(CC[C@H](C(=O)N(C)C)C2)CN3)c1F (single isomer, unassigned) [Compound 107a] | 50.1 |
| CN(C)C(=O)c1c(N)ccc(-c2cnc3c(c2Cl)[C@]2(CC[C@](O)(Cn4cncn4)C2)CN3)c1F (single isomer, unassigned) [Compound 116c] | 140 |
| CN(C)C(=O)c1c(N)ccc(-c2cnc3c(c2Cl)[C@@]2(CCC(=O)NC2)CN3)c1F (single isomer, unassigned) [Compound 123a] | 37.6 |
| CN(C)C(=O)c1c(N)ccc(-c2cnc3c(c2Cl)[C@]2(CCC(=O)NC2)CN3)c1F (single isomer, unassigned) [Compound 123b] | 771 |
| C[C@H]1Nc2ncc(-c3ccc(N)c(C(=O)N(C)C)c3F)cc2C12CC2 (single isomer, unassigned) [Compound 128a] | 46.6 |
| C[C@@H]1Nc2ncc(-c3ccc(N)c(C(=O)N(C)C)c3F)cc2C12CC2 (single isomer, unassigned) [Compound 128b] | 42.2 |
| CN(C)C(=O)c1c(N)ccc(-c2cnc3c(c2Cl)[C@]2(CC[C@H](N4CCCC4=O)C2)CN3)c1F (single isomer, unassigned) [Compound 143a] | 157 |
| CN(C)C(=O)c1c(N)ccc(-c2cnc3c(c2Cl)[C@@]2(CN3)C[C@H](O)[C@@H](n3ccnn3)C2)c1F (single isomer, unassigned) [Compound 146c] | 74.6 |
| CN(C)C(=O)c1c(N)ccc(-c2cnc3c(c2Cl)[C@@]2(CC[C@@](C)(C(N)=O)C2)CN3)c1F (single isomer, unassigned) [Compound 155b] | 84.8 |
| Cc1cc(C#N)nn1[C@H]1CC[C@@]2(CNc3ncc(-c4ccc(N)c(C(=O)N(C)C)c4F)c(Cl)c32)C1 (single isomer, unassigned) [Compound 162a] | 103 |
| CN(C)C(=O)c1c(N)ccc(-c2cnc3c(c2Cl)[C@]2(CC[C@H](n4ccc(C(F)(F)F)n4)C2)CN3)c1F (single isomer, unassigned) [Compound 168a] | 26.3 |
| Cn1cc([C@H]2CCCN2C(=O)c2cccc(-c3cnc4c(c3)C3(CC3)CN4)c2F)cn1 (single isomer, unassigned) [Compound 174a] | 74.2 |
| Cn1cc([C@@H]2CCCN2C(=O)c2cccc(-c3cnc4c(c3)C3(CC3)CN4)c2F)cn1 (single isomer, unassigned) [Compound 174b] | 582 |
| Cn1cc([C@@H]2CCCCN2C(=O)c2cccc(-c3cnc4c(c3)C3(CC3)CN4)c2F)cn1 (single isomer, unassigned) [Compound 175b] | 945 |
| Cn1cccc(-c2cccc(-c3cnc4c(c3Cl)[C@]3(CC[C@](C)(C(N)=O)C3)CN4)c2)c1=O (single isomer, unassigned) [Compound 179a] | 194 |
| CC1(C#N)CCCN1C(=O)c1cccc(-c2cnc3c(c2)C2(CC2)CN3)c1F (single isomer, unassigned) [Compound 191a] | 34.7 |
| CN(C)C(=O)c1cccc(-c2cnc3c(c2)[C@]2(CC[C@](C)(C(N)=O)C2)CN3)c1F (single isomer, unassigned) [Compound 199a] | 941 |
| CN(C)C(=O)c1cccc(-c2cnc3c(c2)[C@@]2(CC[C@@](C)(C(N)=O)C2)CN3)c1F (single isomer, unassigned) [Compound 199b] | 105 |
| CCC[C@@H]1C[C@@]12CNc1ncc(-c3ccc(N)c(C(=O)N(C)C)c3F)cc12 (single isomer, unassigned) [Compound 217c] | 67.9 |
| CCC[C@H]1C[C@]12CNc1ncc(-c3ccc(N)c(C(=O)N(C)C)c3F)cc12 (single isomer, unassigned) [Compound 217d] | 23.4 |

The next compounds have a lower Ki than those just listed; values first:

| Ki [nM] | Compound |
| --- | --- |
| 11.6 | CN(C)C(=O)c1c(N)ccc(-c2cnc3c(c2Cl)[C@@]2(CN3)C[C@@H]2CO)c1F (single isomer, unassigned) [Compound 39c] |
| 18.7 | CN(C)C(=O)c1c(N)ccc(-c2cnc3c(c2Cl)[C@]2(CN3)C[C@H]2CO)c1F (single isomer, unassigned) [Compound 39d] |
| 12.1 | Nc1cc(-c2cnc3c(c2Cl)[C@@]2(CC[C@@H](O)C2)CN3)cc(-c2ncccc2CO)c1 (single isomer, unassigned) [Compound 61b] |
| 17.9 | Cn1cccc(-c2cccc(-c3cnc4c(c3Cl)C3(CC[C@@H](O)C3)CN4)c2)c1=O (single isomer, unassigned) [Compound 68a] |
| 7.7 | Cn1cccc(-c2cccc(-c3cnc4c(c3Cl)C3(CC[C@@H](O)C3)CN4)c2)c1=O (single isomer, unassigned) [Compound 68b] |
| 14.5 | CN(C)C(=O)c1c(N)ccc(-c2cnc3c(c2Cl)[C@]2(CC[C@H](c4ncn[nH]4)C2)CN3)c1F (single isomer, unassigned) [Compound 99a] |
| 1.74 | CN(C)C(=O)c1c(N)ccc(-c2cnc3c(c2Cl)[C@@]2(CC[C@@H](C(N)=O)C2)CN3)c1F (single isomer, unassigned) [Compound 100b] |
| 9.85 | CN(C)C(=O)c1c(N)ccc(-c2cnc3c(c2Cl)[C@]2(CC[C@H](C(=O)O)C2)CN3)c1F (single isomer, unassigned) [Compound 105a] |
| 8.49 | CN(C)C(=O)c1c(N)ccc(-c2cnc3c(c2Cl)[C@]2(CC[C@H](n4ncnc4N)C2)CN3)c1F (single isomer, unassigned) [Compound 118a] |
| 3.93 | CN(C)C(=O)c1c(N)ccc(-c2cnc3c(c2Cl)[C@]2(CC[C@](C)(C#N)C2)CN3)c1F (single isomer, unassigned) [Compound 131a] |
| 2.95 | CN(C)C(=O)c1c(N)ccc(-c2cnc3c(c2Cl)[C@]2(CC[C@@H](CC(N)=O)C2)CN3)c1F (single isomer, unassigned) [Compound 135c] |
| 4.2 | Cn1cc([C@H]2CCCCN2C(=O)c2cccc(-c3cnc4c(c3)C3(CC3)CN4)c2F)cn1 (single isomer, unassigned) [Compound 175a] |
| 0.91 | Cn1cccc(-c2cccc(-c3cnc4c(c3Cl)[C@@]3(CC[C@@](C)(C(N)=O)C3)CN4)c2)c1=O (single isomer, unassigned) [Compound 179b] |
| 3.64 | CC(C)[C@H]1C[C@@]12CNc1ncc(-c3ccc(N)c(C(=O)N(C)C)c3F)c(Cl)c12 (single isomer, unassigned) [Compound 193a] |
| 1.41 | CC(C)[C@@H]1C[C@]12CNc1ncc(-c3ccc(N)c(C(=O)N(C)C)c3F)c(Cl)c12 (single isomer, unassigned) [Compound 193b] |
| 6.23 | CN(C)C(=O)c1cccc(-c2cnc3c(c2Cl)[C@]2(CC[C@](C)(C(N)=O)C2)CN3)c1F (single isomer, unassigned) [Compound 195b] |
| 5.13 | CCC[C@H]1C[C@@]12CNc1ncc(-c3ccc(N)c(C(=O)N(C)C)c3F)c(Cl)c12 (single isomer, unassigned) [Compound 197a] |
| 3.64 | CCC[C@@H]1C[C@]12CNc1ncc(-c3ccc(N)c(C(=O)N(C)C)c3F)c(Cl)c12 (single isomer, unassigned) [Compound 197b] |
| 21.9 | C[C@]1(C(N)=O)CC[C@@]2(CNc3ncc(-c4cccc(N5CCOCC5=O)c4F)c(Cl)c32)C1 (single isomer, unassigned) [Compound 202b] |
| 9.4 | CCC[C@H]1C[C@@]12CNc1ncc(-c3ccc(N)c(C(=O)N(C)C)c3F)cc12 (single isomer, unassigned) [Compound 217a] |
| 9.05 | CCC[C@@H]1C[C@]12CNc1ncc(-c3ccc(N)c(C(=O)N(C)C)c3F)cc12 (single isomer, unassigned) [Compound 217b] |
